# Data published in ChEMBL document CHEMBL3585336, “Synthesis and evaluation of quinazoline amino acid derivatives as mono amine oxidase (MAO) inhibitors” (Bioorg Med Chem, 2015).
# Tests used:
# Mus musculus [1] = assay: Acute toxicity in mouse at 300 mg/kg, po after 24 hrs; type: organism-based; conditions: in vivo
# [2] = molecular target: T1, Amine oxidase [flavin-containing] B (Bos taurus, UniProt P56560); assay: Inhibition of bovine brain mitochondria MAO-B using benzylamine substrate after 60 mins by fluorimetric method
# T1 sequence (P56560 whole entry): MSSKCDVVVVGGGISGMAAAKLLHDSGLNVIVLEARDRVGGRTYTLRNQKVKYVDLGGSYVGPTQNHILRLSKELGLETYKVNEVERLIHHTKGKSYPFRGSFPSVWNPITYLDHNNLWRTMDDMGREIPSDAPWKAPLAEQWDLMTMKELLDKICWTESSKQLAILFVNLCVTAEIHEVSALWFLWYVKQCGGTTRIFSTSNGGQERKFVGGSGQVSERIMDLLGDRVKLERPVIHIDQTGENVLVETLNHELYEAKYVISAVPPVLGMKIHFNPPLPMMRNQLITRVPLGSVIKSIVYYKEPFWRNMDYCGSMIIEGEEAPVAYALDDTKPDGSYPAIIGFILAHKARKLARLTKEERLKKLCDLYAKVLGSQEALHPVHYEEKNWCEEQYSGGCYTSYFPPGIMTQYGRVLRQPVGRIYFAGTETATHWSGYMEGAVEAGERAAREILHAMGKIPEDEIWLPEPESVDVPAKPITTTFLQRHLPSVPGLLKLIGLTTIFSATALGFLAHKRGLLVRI
# [3] = molecular target: T2, Amine oxidase [flavin-containing] A (Bos taurus, UniProt P21398); assay: Inhibition of bovine brain mitochondria MAO-A using serotonin substrate after 60 mins by fluorimetric method
# T2 sequence (P21398 whole entry): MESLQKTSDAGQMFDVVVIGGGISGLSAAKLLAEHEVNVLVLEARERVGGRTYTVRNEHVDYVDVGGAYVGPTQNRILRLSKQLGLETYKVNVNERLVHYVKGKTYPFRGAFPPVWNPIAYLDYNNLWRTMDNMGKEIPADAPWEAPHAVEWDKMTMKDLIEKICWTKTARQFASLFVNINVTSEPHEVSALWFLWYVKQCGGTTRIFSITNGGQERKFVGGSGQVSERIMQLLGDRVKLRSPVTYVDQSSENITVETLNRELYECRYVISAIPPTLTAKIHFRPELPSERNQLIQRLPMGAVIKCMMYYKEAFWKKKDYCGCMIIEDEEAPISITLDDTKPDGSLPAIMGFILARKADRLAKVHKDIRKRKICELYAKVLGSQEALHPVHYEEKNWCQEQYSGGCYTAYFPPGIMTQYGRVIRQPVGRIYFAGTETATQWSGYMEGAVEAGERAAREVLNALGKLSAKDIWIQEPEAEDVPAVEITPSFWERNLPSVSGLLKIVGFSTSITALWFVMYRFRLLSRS
# Mus musculus [4] = assay: Acute toxicity in mouse at 125 mg/kg, ip after 24 hrs; type: organism-based; conditions: in vivo
Structure (SMILES),Activity (Mus musculus [1]),IC50 [2],IC50 [3],Activity (Mus musculus [4])
COC(=O)[C@H](Cc1ccccc1)NC(=O)c1ccccc1N,Non-toxic,680 µM,0.038 µM,Non-toxic
COC(=O)CCNC(=O)c1ccccc1N,Non-toxic,560 µM,0.062 µM,Non-toxic
COC(=O)CCCNC(=O)c1ccccc1N,Non-toxic,460 µM,0.071 µM,Non-toxic
COC(=O)CCCCCNC(=O)c1ccccc1N,Non-toxic,440 µM,0.056 µM,Non-toxic
COC(=O)CN1C(=O)c2ccccc2NC1c1ccccc1 (stereo not drawn),Non-toxic,–,–,Non-toxic
COC(=O)CN1C(=O)c2ccccc2NC1c1ccc2c(c1)OCO2 (stereo not drawn),Non-toxic,740 µM,0.061 µM,Non-toxic
COC(=O)CN1C(=O)c2ccccc2NC1c1ccco1 (stereo not drawn),Non-toxic,380 µM,0.044 µM,Non-toxic
COC(=O)CN1C(=O)c2ccccc2NC1c1ccc(Cl)cc1 (stereo not drawn),Non-toxic,88 µM,0.0036 µM,Non-toxic
COC(=O)CN1C(=O)c2ccccc2NC1c1ccc(OC)cc1 (stereo not drawn),Non-toxic,560 µM,0.048 µM,Non-toxic
COC(=O)C(C)N1C(=O)c2ccccc2NC1c1ccccc1 (stereo not drawn),Non-toxic,460 µM,0.039 µM,Non-toxic
COC(=O)C(C)N1C(=O)c2ccccc2NC1c1ccc2c(c1)OCO2 (stereo not drawn),Non-toxic,86 µM,0.0028 µM,Non-toxic
COC(=O)C(C)N1C(=O)c2ccccc2NC1c1ccco1 (stereo not drawn),Non-toxic,61 µM,0.0082 µM,Non-toxic
COC(=O)C(Cc1ccccc1)N1C(=O)c2ccccc2NC1c1ccco1 (stereo not drawn),Non-toxic,340 µM,0.073 µM,Non-toxic
COC(=O)C(Cc1ccccc1)N1C(=O)c2ccccc2NC1c1ccc(Cl)cc1 (stereo not drawn),Non-toxic,540 µM,0.042 µM,Non-toxic
NNC(=O)CN1C(=O)c2ccccc2NC1c1ccccc1 (stereo not drawn),Non-toxic,310 µM,0.038 µM,Non-toxic
NNC(=O)CN1C(=O)c2ccccc2NC1c1ccc2c(c1)OCO2 (stereo not drawn),Non-toxic,83 µM,0.0021 µM,Non-toxic
NNC(=O)CN1C(=O)c2ccccc2NC1c1ccco1 (stereo not drawn),Non-toxic,560 µM,0.036 µM,Non-toxic
NNC(=O)CN1C(=O)c2ccccc2NC1c1ccc(Cl)cc1 (stereo not drawn),Non-toxic,940 µM,0.048 µM,Non-toxic
COc1ccc(C2Nc3ccccc3C(=O)N2CC(=O)NN)cc1 (stereo not drawn),Non-toxic,890 µM,0.082 µM,Non-toxic

Structure (SMILES),Activity (Mus musculus [1]),IC50 [2],IC50 [3],Activity (Mus musculus [4])
CC(C(=O)NN)N1C(=O)c2ccccc2NC1c1ccco1 (stereo not drawn),Non-toxic,310 µM,0.032 µM,Non-toxic
NNC(=O)C(Cc1ccccc1)N1C(=O)c2ccccc2NC1c1ccco1 (stereo not drawn),Non-toxic,220 µM,0.028 µM,Non-toxic
NNC(=O)C(Cc1ccccc1)N1C(=O)c2ccccc2NC1c1ccc(Cl)cc1 (stereo not drawn),Non-toxic,120 µM,0.018 µM,Non-toxic
COC(=O)CCN1C(=O)c2ccccc2NC1c1ccccc1 (stereo not drawn),Non-toxic,860 µM,0.092 µM,Non-toxic
COC(=O)CCN1C(=O)c2ccccc2NC1c1ccc2c(c1)OCO2 (stereo not drawn),Non-toxic,170 µM,0.084 µM,Non-toxic
COC(=O)CCN1C(=O)c2ccccc2NC1c1ccc(Cl)cc1 (stereo not drawn),Non-toxic,720 µM,0.098 µM,Non-toxic
COC(=O)CCCN1C(=O)c2ccccc2NC1c1ccccc1 (stereo not drawn),Non-toxic,540 µM,0.063 µM,Non-toxic
COC(=O)CCCN1C(=O)c2ccccc2NC1c1ccc2c(c1)OCO2 (stereo not drawn),Non-toxic,660 µM,0.088 µM,Non-toxic
COC(=O)CCCN1C(=O)c2ccccc2NC1c1ccco1 (stereo not drawn),Non-toxic,780 µM,0.096 µM,Non-toxic
COC(=O)CCCCCN1C(=O)c2ccccc2NC1c1ccc2c(c1)OCO2 (stereo not drawn),Non-toxic,820 µM,0.084 µM,Non-toxic
COC(=O)CCCCCN1C(=O)c2ccccc2NC1c1ccc(Cl)cc1 (stereo not drawn),Non-toxic,290 µM,0.044 µM,Non-toxic
COC(=O)CCCCCNC(=O)c1ccccc1/N=C/c1ccccc1,Non-toxic,540 µM,0.064 µM,Non-toxic
NNC(=O)CCN1C(=O)c2ccccc2NC1c1ccccc1 (stereo not drawn),Non-toxic,210 µM,0.016 µM,Non-toxic
NNC(=O)CCN1C(=O)c2ccccc2NC1c1ccc2c(c1)OCO2 (stereo not drawn),Non-toxic,380 µM,0.032 µM,Non-toxic
NNC(=O)CCN1C(=O)c2ccccc2NC1c1ccc(Cl)cc1 (stereo not drawn),Non-toxic,420 µM,0.051 µM,Non-toxic
NNC(=O)CCCN1C(=O)c2ccccc2NC1c1ccccc1 (stereo not drawn),Non-toxic,370 µM,0.047 µM,Non-toxic
NNC(=O)CCCN1C(=O)c2ccccc2NC1c1ccc2c(c1)OCO2 (stereo not drawn),Non-toxic,420 µM,0.082 µM,Non-toxic
NNC(=O)CCCN1C(=O)c2ccccc2NC1c1ccco1 (stereo not drawn),Non-toxic,270 µM,0.036 µM,Non-toxic
C#CCN(C)CCCOc1ccc(Cl)cc1Cl [CLORGILINE],Non-toxic,–,–,Non-toxic
